Reference: patent publication US11653650B2, “Fungicide composition and method for controlling disease of crop” (ISHIHARA SANGYO KAISHA, LTD., priority 2017, dated 2023)
Like-named read-outs stand apart in the source and are kept apart here.

What was measured:
[1] = system: pear scab (Japanese pear scab); assay: Effect test against pear scab (Japanese pear scab), effect on leaves, sprayed adult pear trees; format: in vivo, pear (cultivar: Housui); details: sprayed four times
Description: Test Example 1: Effect Test Against Pear Scab (Japanese Pear Scab) (Effect on Leaves) A given amount of a chemical was sprayed on adult trees of pear (cultivar: Housui) with a pressurized sprayer in an amount sufficient to drip from the leaves. The spraying was performed four times in total at intervals of 8 to 10 days, about 50 leaves per area were investigated about the presence or absence of the onset of the disease days after the final spraying, and the ratio of the leaves with the onset of the disease and the disease control value were calculated (in triplicate). In addition, the theoretical value (of the disease control value) by mixing was also calculated according to the Colby's formula. Disease control value=(1−a/b)×100 wherein a: Mean ratio of leaves with the onset of the disease in the treated area, b: Mean ratio of leaves with the onset of the disease in the untreated area; Colby's formula=(X+Y)−XY/100 wherein X: Disease control value when using isofetamid alone, Y: Disease control value when using mandestrobin alone. When the actually measured value is higher than the theoretical value, the fungicide composition of the present invention has a synergistic effect on pear scab (Japanese pear scab).

[2] = system: Apple anthracnose (apple bitter rot) fungus, Colletotrichum acutatum; assay: Inhibitory effect test for hyphal elongation on PDA, 20° C., 2 days; format: cell-based; details: read-out: Inhibition rate (%)
Description: (§1) Test Example 5: Inhibitory Effect Test for Hyphal Elongation (Apple Anthracnose (Apple Bitter Rot) Fungus, Colletotrichum acutatum) A fungal flora (diameter: 4 mm) obtained by pre-cultivation was transplanted on PDA containing a given concentration of a chemical and then cultured at room temperature of 20° C. for 2 days, followed by measuring the diameter of the grown flora in the same manner as described in Test Example 3 to determine the hyphal elongation, inhibition rate. In addition, theoretical values (of the hyphal elongation inhibition rate) were calculated according to the Colby's calculation formula based on the above determined hyphal elongation inhibition rate, and presented in parenthesis in the table.

[3] = system: pear scab (Japanese pear scab); assay: Effect test against pear scab (Japanese pear scab), effect on fruits, sprayed adult pear trees; format: in vivo, pear (cultivar: Housui); details: 8 days after the final spraying
Description: Test Example 2: Effect Test Against Pear Scab (Japanese Pear Scab) (Effect on Fruits) A given amount of a chemical was sprayed on adult trees of pear (cultivar: Housui) with a pressurized sprayer in an amount sufficient to drip from the leaves and fruits. The spraying was performed four times in total at intervals of 6 to 11 days, about 50 fruits per area were investigated about the presence or absence of the onset of the disease 8 days after the final spraying, and the ratio of the fruits with the onset of the disease and the disease control value were calculated (in triplicate). In addition, the theoretical value (of the disease control value) by mixing was also calculated according to the Colby's formula. Disease control value=(1−a/b)×100 wherein a: Mean ratio of fruits with the onset of the disease in the treated area, b: Mean ratio of fruits with the onset of the disease in the untreated area.

[4] = system: Pear scab (Japanese pear scab) fungus, Venturia nashicola; assay: Inhibitory effect test for hyphal elongation on PDA, 20° C., 25 days; format: cell-based; details: read-out: Inhibition rate (%)
Description: Test Example 3: Inhibitory Effect Test for Hyphal Elongation (Pear Scab (Japanese Pear Scab) Fungus, Venturia nashicola) A fungal flora (diameter: 4 mm) obtained by pre-cultivation was transplanted on PDA (potato dextrose agar medium) containing a given concentration of a chemical and then cultured at room temperature of 20° C. for 25 days, followed by measuring the diameter (mm) of the grown flora to determine the hyphal elongation inhibition rate. In addition, theoretical values (of the hyphal elongation inhibition rate) were calculated according to the Colby's calculation formula based on the above determined hyphal elongation inhibition rate, and presented in parenthesis in the table. Inhibition rate=(1−a/b)×100 wherein a: “Mean diameter (mm) of flora in the treated area”—4, b: “Mean diameter (mm) of flora in the untreated area”—4 Colby's formula=(X+Y)−XY/100 X: Inhibition rate when using isofetamid alone Y: Inhibition rate when using mandestrobin alone. When the experimental value is higher than the theoretical value, the fungicide composition of the present invention has a synergistic effect on pear scab (Japanese pear scab) fungus.

[5] = system: Apple anthracnose (apple bitter rot) fungus, Colletotrichum gloeosporioides; assay: Inhibitory effect test for hyphal elongation on PDA, 20° C., 2 days; format: cell-based; details: read-out: Inhibition rate (%)
Description: as §1, with “4:” for “5:”, “gloeosporioides)” for “acutatum)”, “elongation” for “elongation,”

[6] = Mandestrobin 0.01 ppm alone (Isofetamid 0 ppm)
[7] = Mandestrobin 0.1 ppm alone (Isofetamid 0 ppm)
[8] = Mandestrobin 1 ppm alone (Isofetamid 0 ppm)
[9] = Mandestrobin 10 ppm alone (Isofetamid 0 ppm)
[10] = Isofetamid 0.01 ppm alone (Mandestrobin 0 ppm)
[11] = Isofetamid 0.1 ppm alone (Mandestrobin 0 ppm)
[12] = Isofetamid 1 ppm alone (Mandestrobin 0 ppm)
[13] = Isofetamid 10 ppm alone (Mandestrobin 0 ppm)

How did the Disease control value ([1]; Mandestrobin 70 ppm) turn out when `CNC(=O)C(OC)c1ccccc1COc1cc(C)ccc1C` (racemic) [Mandestrobin, (RS)-2-methoxy-N-methyl-2-[α-(2,5-xylyloxy)-o-tolyl]acetamide] was run?
Its Disease control value is 65.9.

And the “Ratio of leaves with onset of disease (%)” value (shortened to “Ratio of leaves … (%)”) ([1]; Mandestrobin 70 ppm)?
The value was 31.7%.

What about the Disease control value ([1]; Mandestrobin 140 ppm) of the same compound?
The Disease control value was 74.9.

What about the “Ratio of leaves … (%)” value ([1]; Mandestrobin 140 ppm) of the same compound?
The value was 23.3%.

What about the inhibition at 0.01 ppm [2, 6] of the same compound?
The inhibition at 0.01 ppm was 0%.

And the inhibition at 0.1 ppm [2, 7]?
Its inhibition at 0.1 ppm is 0%.

And the inhibition at 1 ppm [2, 8]?
Its inhibition at 1 ppm is 42.6%.

And the inhibition at 10 ppm [2, 9]?
Its inhibition at 10 ppm is 55.4%.

And the Disease control value ([3]; Mandestrobin 70 ppm)?
Its Disease control value is 77.5.

What about the “Ratio of fruits with onset of disease (%)” value (from here on “Ratio of fruits … (%)”) ([3]; Mandestrobin 70 ppm) of the same compound?
The value was 10.3%.

What about the Disease control value ([3]; Mandestrobin 100 ppm) of the same compound?
Its Disease control value is 90.1.

And the “Ratio of fruits … (%)” value ([3]; Mandestrobin 100 ppm)?
The value was 4.5%.

What about the Disease control value ([3]; Mandestrobin 140 ppm) of the same compound?
Its Disease control value is 93.4.

What about the “Ratio of fruits … (%)” value ([3]; Mandestrobin 140 ppm) of the same compound?
The value was 3.0%.

What about the inhibition at 0.01 ppm [4, 6] of the same compound?
Its inhibition at 0.01 ppm is 0%.

What about the inhibition at 0.1 ppm [4, 7] of the same compound?
The inhibition at 0.1 ppm was 12.8%.

What about the inhibition at 1 ppm [4, 8] of the same compound?
The inhibition at 1 ppm was 27.7%.

And the inhibition at 10 ppm [4, 9]?
Its inhibition at 10 ppm is 44.7%.

And the inhibition at 0.01 ppm [5, 6]?
Its inhibition at 0.01 ppm is 1.9%.

What about the inhibition at 0.1 ppm [5, 7] of the same compound?
Its inhibition at 0.1 ppm is 3.8%.

And the inhibition at 1 ppm [5, 8]?
Its inhibition at 1 ppm is 14.1%.

What about the inhibition at 10 ppm [5, 9] of the same compound?
Its inhibition at 10 ppm is 33.3%.

Which Disease control value ([1]; Isofetamid 90 ppm) does the source give for `Cc1cc(OC(C)C)ccc1C(=O)C(C)(C)NC(=O)c1sccc1C` [Isofetamid, N-[1,1-dimethyl-2-(4-isopropoxy-o-tolyl)-2-oxoethyl]-3-methylthiophene-2-carboxamide] here?
The Disease control value was 66.3.

What about the “Ratio of leaves … (%)” value ([1]; Isofetamid 90 ppm) of the same compound?
Its value is 31.3%.

And the Disease control value ([1]; Isofetamid 190 ppm)?
The Disease control value was 56.4.

And the “Ratio of leaves … (%)” value ([1]; Isofetamid 190 ppm)?
Its value is 40.5%.

What about the inhibition at 0.01 ppm [2, 10] of the same compound?
Its inhibition at 0.01 ppm is 6.9%.

And the inhibition at 0.1 ppm [2, 11]?
Its inhibition at 0.1 ppm is 3%.

What about the inhibition at 1 ppm [2, 12] of the same compound?
Its inhibition at 1 ppm is 0%.

And the inhibition at 10 ppm [2, 13]?
The inhibition at 10 ppm was 24.8%.

What about the Disease control value ([3]; Isofetamid 93 ppm) of the same compound?
Its Disease control value is 83.4.

What about the “Ratio of fruits … (%)” value ([3]; Isofetamid 93 ppm) of the same compound?
The value was 7.6%.

And the Disease control value ([3]; Isofetamid 134 ppm)?
The Disease control value was 77.5.

What about the “Ratio of fruits … (%)” value ([3]; Isofetamid 134 ppm) of the same compound?
Its value is 10.3%.

And the Disease control value ([3]; Isofetamid 187 ppm)?
Its Disease control value is 62.3.

What about the “Ratio of fruits … (%)” value ([3]; Isofetamid 187 ppm) of the same compound?
Its value is 17.2%.

And the inhibition at 0.01 ppm [4, 10]?
The inhibition at 0.01 ppm was 0%.

What about the inhibition at 0.1 ppm [4, 11] of the same compound?
Its inhibition at 0.1 ppm is 8.5%.

And the inhibition at 1 ppm [4, 12]?
Its inhibition at 1 ppm is 49.6%.

What about the inhibition at 10 ppm [4, 13] of the same compound?
Its inhibition at 10 ppm is 100%.

And the inhibition at 0.01 ppm [5, 10]?
Its inhibition at 0.01 ppm is 0%.

What about the inhibition at 0.1 ppm [5, 11] of the same compound?
Its inhibition at 0.1 ppm is 0%.

What about the inhibition at 1 ppm [5, 12] of the same compound?
Its inhibition at 1 ppm is 0%.

What about the inhibition at 10 ppm [5, 13] of the same compound?
Its inhibition at 10 ppm is 2.6%.
